Results from patent US11352350B2, “IRAK degraders and uses thereof” (Kymera Therapeutics, Inc., priority 2018, dated 2022).
Like-named read-outs stand apart in the source and are kept apart here.

How the values were obtained:
OCI-LY10 = assay: CTG Cell Viability Assay - OCI-LY10; type: cell-based, human; conditions: Homo sapiens, OCI-LY10, 4 days, read-out: CTG Cell Viability Assay - OCI-LY10: Average external-IC50
Description: Compound-mediated viability effect on OCI-LY10 or TMD8 was quantitatively determined using the CellTiter-Glo® Luminescent Cell Viability Assay kit from Promega (Catalog number G7570) following manufacturer's recommended procedures. […] Compounds were then added to the assay plate with final top concentration of 10 μM and 1:3 dilution series with total of 9 doses. The final DMSO concentration was normalized to 0.2%. The assay plates were incubated at 37° C. for 4 days under 5% CO2. Then the assay plate was equilibrated at room temperature for 10 minutes. […] The data was then analyzed by software Prism 7.0 from GraphPad and the dose response curves were fit using a three-parameter logistic equation to calculate IC50.

IRAK4 = IRAK4 (Homo sapiens (Human), UniProt Q9NWZ3); assay: IRAK4 MSD degradation in OCI-LY10; type: cell-based
Description: Degradation of IRAK4 in OCI-LY10 was quantitatively measured using Meso Scale Discovery technology. […] Compounds were then added to the assay plates with a final top concentration of 1 to 10 μM in a 1:3 dilution series with total of 8 doses. The assay plates were then incubated for 4 to 24 hours at 37° C. under 5% CO2. […] To prepare MSD assay plates (Meso Scale Discovery Catalog number L15XA-3), the plates were coated with […] capture antibody (mouse Anti-IRAK4 antibody [2H9], ab119942) in PBS, at 40 μL/well. […] Cell lysates were then added to MSD assay plates and the plates were incubated at room temperature for 1 hour. The plates were then washed 3 times with 150 μL/well TBST buffer and 25 μL/well primary detection antibody (rabbit Anti-IRAK4 antibody [Y279], from Abcam. Catalog number ab32511, […]). The assay plates were then incubated at room temperature for 1 hour, washed 3 times with 150 μL/well TBST buffer and 25 µL/well secondary detection antibody, SULFO-TAG anti-rabbit antibody were added (anti rabbit antibody from Meso Scale Discovery, Catalog number R32AB-1, 1 μg/mL). The assay plates were then incubated at room temperature for 1 hour, washed 3 times with 150 μL/well TB ST buffer, and 150 μL/well MSD reading buffer (Meso Scale Discovery catalog number R92TC-2) was added. The plates were then analyzed by a MSD reader (Meso Scale Discovery, Model Quick Plex SQ 120). The data was then analyzed by software Prism 7.0 from GraphPad and the dose-depended IRAK4 degradation were fit using a three-parameter logistic equation to calculate DC50.

[1] = OCI-LY10, 4 hrs, MSD, read-out: IRAK4 MSD degradation in OCI-LY10 at 4 hrs: Average external-Abs DC50
[2] = OCI-LY10, 24 hrs, MSD, read-out: IRAK4 MSD degradation in OCI-LY10 at 24 hrs: Average external-Abs DC50
[3] = OCI-LY10, 4 hrs, read-out: IRAK4 MSD degradation in OCI-LY10 at 4 hrs: DC50
[4] = OCI-LY10, 24 hrs, read-out: IRAK4 MSD degradation in OCI-LY10 at 24 hrs: DC50

Sequence of IRAK4 (Q9NWZ3 whole entry): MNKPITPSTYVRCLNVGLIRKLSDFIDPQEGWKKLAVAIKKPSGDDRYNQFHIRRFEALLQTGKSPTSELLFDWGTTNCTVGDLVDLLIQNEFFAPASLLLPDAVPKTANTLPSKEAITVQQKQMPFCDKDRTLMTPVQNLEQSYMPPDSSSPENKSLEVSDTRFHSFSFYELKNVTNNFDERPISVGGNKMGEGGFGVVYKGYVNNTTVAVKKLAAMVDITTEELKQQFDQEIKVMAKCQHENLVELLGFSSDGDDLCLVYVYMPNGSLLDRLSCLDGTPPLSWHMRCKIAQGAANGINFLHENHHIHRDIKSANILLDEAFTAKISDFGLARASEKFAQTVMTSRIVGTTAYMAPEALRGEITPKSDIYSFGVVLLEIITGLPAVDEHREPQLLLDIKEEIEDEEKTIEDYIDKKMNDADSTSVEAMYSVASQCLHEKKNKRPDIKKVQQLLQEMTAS

Row | SMILES | IC50 (OCI-LY10; OCI-Ly10, 96 h) | DC50 (IRAK4; [1]) | DC50 (IRAK4; [2]) | DC50 (IRAK4; [3]) | DC50 (IRAK4; [4]) | IC50 (OCI-LY10; 96 h)
1 | O=C1CCC(N2C(=O)c3cccc(NCCCCOC4CCN(C[C@H]5CC[C@H](n6cc(NC(=O)c7coc(-c8ccnc(NCC9CC9)c8)n7)c(C(F)F)n6)CC5)CC4)c3C2=O)C(=O)N1 (some centres unmarked) [I-170] | < 50 nM | 10 to 100 nM |  |  |  | 
2 | O=C1CCC(N2C(=O)c3cccc(NC4CCN(C[C@H]5CC[C@H](n6cc(NC(=O)c7cnn8ccc(N9CCOCC9)nc78)c(C(F)F)n6)CC5)CC4)c3C2=O)C(=O)N1 (some centres unmarked) [I-218] | > 1000 nM | 100 to 1000 nM | 100 to 1000 nM |  |  | 
3 | CN(C[C@H]1CC[C@H](n2cc(NC(=O)c3cnn4ccc(N[C@@H]5CCCC[C@@H]5O)nc34)c(C(F)F)n2)CC1)C1CCN(Cc2cccc3c2n(C)c(=O)n3C2CCC(=O)NC2=O)CC1 (some centres unmarked) [I-279] | > 1000 nM | < 10 nM |  |  |  | 
4 | Cn1c(=O)n(C2CCC(=O)NC2=O)c2cccc(CCCOC3CCN(C[C@H]4CC[C@H](n5cc(NC(=O)c6cnn7ccc(N8CCC(O)CC8)nc67)c(C(F)F)n5)CC4)CC3)c21 (some centres unmarked) [I-157] | > 1000 nM | < 10 nM |  |  |  | 
5 | C=C(C)c1nn([C@H]2CC[C@H](CN3CCC(OCCCc4cccc5c4n(C)c(=O)n5C4CCC(=O)NC4=O)CC3)CC2)cc1NC(=O)c1cnn2ccc(NCC3CC3)nc12 (some centres unmarked) [I-172] | > 1000 nM | 100 to 1000 nM |  |  |  | 
6 | CC[C@@H]1[C@H](F)C(=O)N[C@@H]1COc1ncc(C#C[C@H]2CC[C@H](CN3CCC(OCCCc4cccc5c4n(C)c(=O)n5C4CCC(=O)NC4=O)CC3)CC2)c2cc(C(N)=O)c(OC)cc12 (some centres unmarked) [I-186] | > 1000 nM | 10 to 100 nM | < 10 nM |  |  | 
7 | CN(C[C@H]1CC[C@H](n2cc(NC(=O)c3cnn4ccc(N5CCOCC5)nc34)c(C(F)F)n2)CC1)C1CCN(CCc2cccc3c2n(C)c(=O)n3C2CCC(=O)NC2=O)CC1 (some centres unmarked) [I-404] | < 50 nM | < 10 nM |  |  |  | 
8 | CN(C[C@H]1CC[C@H](n2cc(NC(=O)c3cnn4ccc(NCCC(C)(C)O)nc34)c(C(F)F)n2)CC1)[C@H]1CC[C@H](Nc2cccc3c2C(=O)N(C2CCC(=O)NC2=O)C3=O)CC1 (some centres unmarked) [I-502] | < 50 nM |  |  | < 10 nM | < 10 nM | 
9 | CN(CC1CCC(n2cc(NC(=O)c3cnn4ccc(N5C[C@H]6C[C@@H]5CO6)nc34)c(C(F)F)n2)CC1)[C@H]1C[C@H](Nc2cccc3c2C(=O)N(C2CCC(=O)NC2=O)C3=O)C1 (some centres unmarked) [I-457] | > 1000 nM |  |  | 100 to 1000 nM | > 1000 nM | 
10 | CC[C@@H]1[C@H](F)C(=O)N[C@@H]1COc1ncc(C#C[C@H]2CC[C@H](CN3CCC(OCCC#Cc4ccc([C@H]5CN(C6CCC(=O)NC6=O)C(=O)O5)cc4)CC3)CC2)c2cc(C(N)=O)c(OC)cc12 (some centres unmarked) [I-206] | > 1000 nM | 10 to 100 nM | 10 to 100 nM |  |  | 
11 | Cn1c(=O)n(C2CCC(=O)NC2=O)c2ccc(CCCOCC3CCN(C[C@H]4CC[C@H](n5cc(NC(=O)c6cnn7ccc(N8CCNCC8)nc67)c(C(F)F)n5)CC4)CC3)cc21 (some centres unmarked) [I-163] | > 1000 nM | < 10 nM |  |  |  | 
12 | CC(C)(O)c1nn([C@H]2CC[C@H](CN3CCC(OCCNc4cccc5c4C(=O)N(C4CCC(=O)NC4=O)C5=O)CC3)CC2)cc1NC(=O)c1cnn2ccc(N3CCOCC3)nc12 (some centres unmarked) [I-217] | 50 to 100 nM | 100 to 1000 nM | > 1000 nM |  |  | 
13 | C[C@@H]1CN(c2ccn3ncc(C(=O)Nc4cn([C@H]5CC[C@H](CN6CCC(OCCCc7cccc8c7n(C)c(=O)n8C7CCC(=O)NC7=O)CC6)CC5)nc4C(F)F)c3n2)C[C@@H](C)O1 (some centres unmarked) [I-276] | > 1000 nM | < 10 nM |  |  |  | 
14 | O=C1CCC(N2C(=O)c3cccc(NCCCCC[C@@H]4CN(C[C@H]5CC[C@H](n6cc(NC(=O)c7cnn8ccc(N9C[C@H]%10C[C@@H]9CO%10)nc78)c(C(F)F)n6)CC5)CCO4)c3C2=O)C(=O)N1 (some centres unmarked) [I-460] | 50 to 100 nM |  |  | 100 to 1000 nM | 10 to 100 nM | 
15 | O=C1CCC(N2C(=O)c3cccc(N4CCC(CCCN5CCC(n6cc(NC(=O)c7cnn8ccc(N9CCOCC9)nc78)c(C(F)F)n6)CC5)CC4)c3C2=O)C(=O)N1 (centres unmarked) [I-228] | > 1000 nM | > 1000 nM |  |  |  | 
16 | Cn1c(=O)n(C2CCC(=O)NC2=O)c2cccc(CCCOCCOCCOCCOCC(=O)N3CCN([C@H]4CC[C@H](Nc5ncnc6[nH]cc(C7CCOCC7)c56)CC4)CC3)c21 (some centres unmarked) [I-53] | > 1000 nM | 100 to 1000 nM | 10 to 100 nM |  |  | 
17 | CN[C@@H](C)C(=O)N[C@H](C(=O)N1Cc2cc(OCCOCCOCCOCCNC[C@H]3CC[C@H](n4cc(NC(=O)c5coc(-c6ccnc(NCC7CC7)c6)n5)c(C(F)F)n4)CC3)ccc2C[C@H]1C(=O)N[C@@H]1CCCc2ccccc21)C(C)(C)C [I-390] |  | > 1000 nM |  |  |  | > 1000 nM
18 | Cc1ncsc1-c1ccc(CNC(=O)[C@@H]2C[C@@H](O)CN2C(=O)[C@@H](NC(=O)COCCOCCOCC(=O)N2CCN([C@H]3CC[C@H](Nc4ncnc5cc(CC#N)ccc45)CC3)CC2)C(C)(C)C)cc1 [I-50] | > 1000 nM | > 1000 nM |  |  |  | 
19 | CC[C@H]1C(COc2ncc(C#C[C@H]3CC[C@H](CN(C)Cc4ccc(CCNc5cccc6c5C(=O)N(C5CCC(=O)NC5=O)C6=O)cc4)CC3)c3cc(C(N)=O)c(OC)cc23)NC(=O)[C@H]1F (some centres unmarked) [I-329] | > 1000 nM | 100 to 1000 nM |  |  |  | 
20 | O=C1CCC(N2C(=O)c3cccc(NCCCOC[C@@H]4CN(C[C@H]5CC[C@H](n6cc(NC(=O)c7cnn8ccc(N9C[C@H]%10C[C@@H]9CO%10)nc78)c(C(F)F)n6)CC5)CCO4)c3C2=O)C(=O)N1 (some centres unmarked) [I-352] | 500 to 1000 nM | > 1000 nM | 10 to 100 nM |  |  | 
21 | Cn1c(=O)n(C2CCC(=O)NC2=O)c2cccc(CCCOC3CCN(C(=O)[C@H]4CC[C@H](n5cc(NC(=O)c6cnn7ccc(N8CCOCC8)nc67)c(C(F)F)n5)CC4)CC3)c21 (some centres unmarked) [I-149] | > 1000 nM | < 10 nM |  |  |  | 
22 | CN(Cc1ccc(CCNc2cccc3c2C(=O)N(C2CCC(=O)NC2=O)C3=O)cc1)C[C@H]1CC[C@H](n2cc(NC(=O)c3cnn4ccc(N5C[C@H]6C[C@@H]5CO6)nc34)c(C(F)F)n2)CC1 (stereo partly drawn) [I-341, N-[3-(difluoromethyl)-1-[4-[[[4-[2-[[2-(2,6-dioxo-3-piperidyl)-1,3-dioxo-isoindolin-4-yl]amino]ethyl]phenyl]methyl-methyl-amino]methyl]cyclohexyl]pyrazol-4-yl]-5-[(1R,4R)-2-oxa-5-azabicyclo [2.2.1]heptan-5-yl] pyrazolo [1,5-a] pyrimidine-3-carboxamide] | > 1000 nM | 100 to 1000 nM | 10 to 100 nM |  |  | 
23 | O=C1CCC(N2C(=O)c3cccc(NCCCOCCCN4CCC(n5cc(NC(=O)c6cnn7ccc(N8CCOCC8)nc67)c(C(F)F)n5)CC4)c3C2=O)C(=O)N1 (centres unmarked) [I-226] | < 50 nM | 100 to 1000 nM | 10 to 100 nM |  |  | 
24 | CC[C@@H]1[C@H](F)C(=O)N[C@@H]1COc1ncc(C#C[C@H]2CC[C@H](CN(C)CCCOCCCN)CC2)c2cc(C(N)=O)c(OC)cc12 [I-316, 4-[2-[4-[[3-(3-Aminopropoxy)propyl-methyl-amino]methyl]cyclohexyl]ethynyl]-1-[[(2S, 3S, 4S)-3-ethyl-4-fluoro-5-oxo-pyrrolidin-2-yl]methoxy]-7-methoxy-isoquinoline-6-carboxamide] |  | > 1000 nM | > 1000 nM |  |  | > 1000 nM
25 | O=C1CCC(N2C(=O)c3cccc(NCCCOC4CCN(C[C@H]5CC[C@H](n6cc(NC(=O)c7cnn8ccc(N9C%10COCC9C%10)nc78)c(C(F)F)n6)CC5)CC4)c3C2=O)C(=O)N1 (some centres unmarked) [I-345] | < 50 nM | 100 to 1000 nM | 10 to 100 nM |  |  | 
26 | CN(CCOCCNCc1cccc2c1n(C)c(=O)n2C1CCC(=O)NC1=O)C[C@H]1CC[C@H](n2cc(NC(=O)c3coc(-c4ccnc(NCC5CC5)c4)n3)c(C(F)F)n2)CC1 (some centres unmarked) [I-237] | > 1000 nM | < 10 nM |  |  |  | 
